Patent publication US20110027293A1, “METHODS AND COMPOSITIONS FOR THE INHIBITION OF VIRAL INFECTION BY TARGETING INTRACELLULAR TRAFFICKING” (priority 2008, published 2011)

Experiments:
hepatitis C virus (HCV) = test: GFP expression of cells infected with HCV construct with and without EHNA; assay type: cell-based; conditions: relative to infection in the absence of EHNA; FIG. 15B vs 15D
Method: (§1) The levels of infection are based on the inhibition of GFP expression, which was determined by infection of cells by MoMLV and HCV viral constructs that included cloned GFP. To determine the consequences of dynein inhibition on the viral life cycle, the expression of viral genes was correlated to the expression (or loss of expression) of GFP. Pictured are cells infected with MoMLV and Hepatitis C with and without EHNA-induced dynein inhibition. Brightness is an indication of GFP expression.
(§2) ATPase activity was inhibited using an anti-dynein small organic molecule (erythro-9-(2-hydroxy-3-nonyl)adenine; EHNA) in another set of experiments. EHNA was obtained from A. G. Scientific and dissolved in Dubelco's Modified Eagle's Medium (DMEM). The solution was added to several sets of treated cells with final concentrations of 0.1 μM, 0.2 μM, 0.5 μM, and 1 μM (FIG. 14).
(§3) To determine the consequences of the loss of cytoplasmic dynein motor activity on the viral life cycle, we cloned the green fluorescent protein (GFP) gene into the viral genomes and assessed GFP expression upon loss of cytoplasmic dynein motor activity (FIG. 15).

MoMLV = test: GFP expression of cells infected with MoMLV construct with and without EHNA; assay type: cell-based, Moloney murine leukemia virus (MoMLV); conditions: relative to infection in the absence of EHNA; FIG. 15A vs 15C
Method: as §1, §2, §3

Question: What does the source list for `CCCCCC[C@@H]([C@@H](C)O)n1cnc2c(N)ncnc21` (racemic) [EHNA, erythro-9-(2-hydroxy-3-nonyl)adenine]?
Answer: infection by hepatitis C virus (inhibition of GFP expression) (hepatitis C virus (HCV)): inhibits infection; infection by MoMLV (inhibition of GFP expression) (MoMLV): inhibits infection
